Experiment in all cases: DTP human tumour cell line panel, 48 h
For test [1], the system named is COLO 205 colon.
In test [2] the test system is OVCAR-5 ovarian.
Test [3] relates to SF-268 CNS.
For test [4], the system named is HL-60(TB) leukemia.
Test [5] concerns NCI-H23 lung.
In test [6] the test system is HCC-2998 colon.
In test [7] the test system is HCT-15 colon.
Test [8] has as its system MDA-MB-231 breast.
Test [9] concerns HOP-92 NSCLC.
The test system of test [10] is DU-145 prostate.

Data on seven compounds can be found in PubChem BioAssay (NCI).

Where “and” joins values, the source holds several entries; their conditions need not be identical. Equal values may be shown once.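 Each compound was tested at five concentrations against cells in 96-well plates for 48 hours. Abbreviation: GI50, concentration required for 50% inhibition of growth. The concentration for full growth arrest is given as TGI.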

`CN1CCN(C(=O)/C=C/c2ccc([N+](=O)[O-])o2)CC1`: the GI50 in [1] was 3.76 µM; in test [2], 22.3 µM; in test [3] it was 20.9 µM; in test [4] it was 10.7 µM; in test [5] it was 8.49 µM; in [6], 18.2 µM. Also, the GI50 in [7] is 3.14 µM; in test [8], 14.3 µM; in test [9], 11.4 µM; in test [10] it was 9.33 µM. Further, the TGI in test [1] is 15 µM; in test [2], 39.1 µM; in test [3] it was 84.1 µM; in test [4], 34 µM; in [5], 22 µM; in test [6], 38.1 µM. Moreover, the TGI in test [7] turned out to be 14.9 µM; in [8] it was 34.7 µM; in [9] it was 26.1 µM; in test [10], 21.2 µM.
On to `CNCc1cccc2c1OCCOCCOCCNS(=O)(=O)c1ccc(cc1)-c1cnc(N)c(n1)C(=O)N2`, for which the GI50 was 1.02 µM in test [1]; 2.72 µM in test [2]; 1.04 µM in test [3]; 0.452 µM in [4]; 2.22 µM in test [5]; 1.79 µM in test [6]. The GI50 in test [7] was 4.86 µM; in [8], 1.38 µM; in test [9], 3.05 µM; in test [10], 1.24 µM. The concentration for total growth inhibition (TGI) in test [1] was 2.44 µM; in test [2], 6.37 µM; in test [3], 3.31 µM; in test [4], 1.89 µM; in [5], 7.72 µM; in [6] it was 4.69 µM. The total growth inhibition concentration (TGI) was 18.9 µM in test [7], 3.61 µM in [8], 14.7 µM in test [9] and 3.36 µM in [10].
Regarding `COc1cc(/C=C/c2cc(/C=C/c3ccc(O)c(OC)c3)n(C(=O)Nc3ccc(C)cc3)n2)ccc1O`, the GI50 is 1.91 µM in test [1]; 1.89 µM in [2]; 0.628 µM in test [3]; 0.261 µM in [4]; 0.586 µM in test [5]; 2.12 µM in [6]. The GI50 in test [7] is 0.384 µM; in test [8], 1.46 µM; in test [9] it was 0.682 µM; in [10], 0.448 µM. In addition, the total growth inhibition concentration (TGI) in [1] amounted to 3.51 µM; in [2], 5.89 µM; in test [3] it was 7.44 µM; in [4] it was 0.657 µM; in test [5] it was 3.99 µM; in [6], 9.46 µM. In addition, the TGI in test [7] was determined as 5.27 µM; in test [8], 23 µM; in test [9], 4.18 µM; in test [10], 2.32 µM.
As for `Cc1ccc(-c2nc([P+](c3ccccc3)(c3ccccc3)c3ccccc3)c(N3CCOCC3)o2)cc1`, the GI50 is 0.343 µM in test [1]; 0.846 µM in test [2]; 0.389 µM in test [3]; 0.246 µM in test [4]; 0.456 µM in test [5]; 0.517 µM in test [6]. The GI50 in test [7] was 3.09 µM; in test [8] it was 0.399 µM; in [9] it was 0.3 µM; in test [10] it was 0.472 µM. In addition, the TGI in [1] amounted to 1.68 µM; in [2] it was 11.9 µM; in test [3], 11 µM; in test [4] it was 0.738 µM; in [5], 7.45 µM; in test [6] it was 6.87 µM. In addition, the TGI in [7] came out at 12.1 µM; in test [8], 4.93 µM; in test [9] it was 2.44 µM; in test [10] it was 10.9 µM.
Regarding `COc1nc(N)nc2nc[nH]c12`, the GI50 in [1] is greater than 1000 µM; in [2], 401 µM and > 728 µM; in test [3], 646 µM; in test [4], 715 µM and 210 µM; in test [5], > 800 µM and 888 µM; in test [6], > 800 µM and 574 µM. Also, the GI50 was greater than 800 µM in test [7]; 641 µM in test [8]; 511 µM and 596 µM in test [9]; 720 µM in test [10]. Also, the concentration for total growth inhibition (TGI) was 419 µM and > 800 µM and > 1000 µM in test [1]; 491 µM and 800 µM and > 1000 µM in test [2]; 500 µM and 800 µM and > 1000 µM in test [3]; 500 µM and 800 µM and > 1000 µM in [4]; greater than 1000 µM in test [5]; greater than 868 µM in test [6]. The total growth inhibition concentration (TGI) in test [7] is 500 µM and > 800 µM and > 1000 µM; in [8], 500 µM and > 1000 µM; in test [9] it was 480 µM and 800 µM and > 1000 µM; in test [10], 500 µM and > 1000 µM.
Regarding `C#CCCCCCC(=O)N[C@H]1C=C[C@@H]2/C=C(C)/C=C/[C@@H](C)[C@H]([C@H](C)[C@H](O)[C@@H](C)NC(C)=O)OC(=O)/C=C/C=C(C)\C=C\[C@]2(C)C1`, the GI50 in test [1] is 0.00414 µM; in [2], 6.53 µM; in test [3], 0.397 µM; in test [4], 0.0335 µM; in test [5] it was 0.0942 µM; in [6] it was 6.16 µM. For the same compound, the GI50 in test [7] is 0.00804 µM; in test [8] it was less than 0.004 µM; in test [9], less than 0.004 µM; in test [10], 0.0157 µM. In addition, the TGI in [1] was 4.06 µM; in test [2], greater than 40 µM; in test [3], greater than 40 µM; in test [4], 9.31 µM; in test [5], greater than 40 µM; in [6] it was greater than 40 µM. For the same compound, the concentration for total growth inhibition (TGI) in [7] is greater than 40 µM; in [8], less than 0.004 µM; in [9], 0.0159 µM; in test [10] it was greater than 40 µM.
In the case of `N#C[Se]CCN1C(=O)c2ccccc2C1=O`, the GI50 in test [1] is 3.07 µM; in [2] it was 2.24 µM; in [3] it was 1.83 µM; in [4], 2.23 µM; in [5], 2.93 µM; in [6], 3.87 µM. For the same compound, the GI50 is 3.58 µM in test [7], 2.74 µM in [8], 1.37 µM in [9] and 2.58 µM in test [10]. The TGI in test [1] was 9.05 µM; in [2] it was 9.38 µM; in test [3], 3.84 µM; in test [4], 5.71 µM; in test [5], 18.8 µM; in [6] it was 15.2 µM. Further, the concentration for total growth inhibition (TGI) in test [7] amounted to 14.7 µM; in [8], 9.65 µM; in test [9], 3.12 µM; in test [10], 7.77 µM.
